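Values below derive from 48-hour exposures of cells grown in 96-well plates, with endpoints linearly interpolated between the two concentrations bracketing the appropriate inhibition level. GI50 is the concentration that inhibits growth by half.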 Activity calls are given as the source filed them. Cut-off read from the data, not from the text of the source: active = GI50 up to about 1.1 µM and inactive = higher.
What was measured:
Assay in all cases: inhibition of tumour cell growth, NCI panel, 48 h
OVCAR-8 = test system: OVCAR-8
K562 = test system: K562
SW-620 = test system: SW-620
UACC-62 = test system: UACC-62
HOP-92 = test system: HOP-92
ACHN = test system: ACHN
SNB-75 = test system: SNB-75
NCI-H23 = test system: NCI-H23
786-0 = test system: 786-0
UACC-257 = test system: UACC-257
HCT-15 = test system: HCT-15
SK-OV-3 = test system: SK-OV-3
SNB-19 = test system: SNB-19
SF-539 = test system: SF-539
HOP-62 = test system: HOP-62

Row | SMILES | GI50 (OVCAR-8) | GI50 (K562) | GI50 (SW-620) | GI50 (UACC-62) | GI50 (HOP-92) | GI50 (ACHN) | GI50 (SNB-75) | GI50 (NCI-H23) | GI50 (786-0) | GI50 (UACC-257) | GI50 (HCT-15) [µM] | GI50 (SK-OV-3) | GI50 (SNB-19) | GI50 (SF-539) | GI50 (HOP-62)
1 | CCc1cccc(C(C)C)c1NC(=O)C(=O)C(C(=O)C(=O)OC)c1nc2ccccc2nc1O (stereo unspecified) | > 100 µM (inactive) | > 100 µM (inactive) | > 100 µM (inactive) | > 100 µM (inactive) | > 100 µM (inactive) | > 100 µM (inactive) | > 100 µM (inactive) | > 100 µM (inactive) | > 100 µM (inactive) | > 100 µM (inactive) | > 100 | > 100 µM (inactive) | > 100 µM (inactive) | – | –
2 | CCCc1cc(OC(=O)c2c(O)cc(OC)cc2CCC)cc(O)c1C(=O)O | 37.5 µM (inactive) | 32.5 µM (inactive) | 37.9 µM (inactive) | 35.7 µM (inactive) | 13.5 µM (inactive) | 27.9 µM (inactive) | 27.5 µM (inactive) | 18 µM (inactive) | 36 µM (inactive) | 18.8 µM (inactive) | – | 22.4 µM (inactive) | 25.1 µM (inactive) | 18 µM (inactive) | 16.6 µM (inactive)
3 | C/N=C(\N=c1/ss/c(=N\C)n1C)N(C)C.[O-][Cl+3]([O-])([O-])O | 97.1 µM (inactive) | 40.7 µM (inactive) | > 100 µM (inactive) | > 100 µM (inactive) | > 100 µM (inactive) | > 100 µM (inactive) | > 100 µM (inactive) | 54.6 µM (inactive) | > 100 µM (inactive) | 97.3 µM (inactive) | – | > 100 µM (inactive) | > 100 µM (inactive) | 79.1 µM (inactive) | –
4 | O=[PH](O)c1cc2c3ccccc3ccc2c2ccccc12 | > 100 µM (inactive) | > 100 µM (inactive) | > 100 µM (inactive) | > 100 µM (inactive) | – | – | > 100 µM (inactive) | > 100 µM (inactive) | > 100 µM (inactive) | – | – | > 100 µM (inactive) | > 100 µM (inactive) | > 100 µM (inactive) | > 100 µM (inactive)
5 | O=C1/C(=C/c2cc(O)c(O)c(O)c2)Oc2cc(O)cc(OC3OC(CO)C(O)C(O)C3O)c21 (stereo unspecified) | 18.2 µM (inactive) | 16.9 µM (inactive) | 24.1 µM (inactive) | 16 µM (inactive) | 3.82 µM (inactive) | 11.6 µM (inactive) | > 100 µM (inactive) | 19.1 µM (inactive) | 27.9 µM (inactive) | – | 22.4 | 46.1 µM (inactive) | > 100 µM (inactive) | > 100 µM (inactive) | –
6 | CC/C(C)=C1\CCC(CN(C)C)C1=O (stereo unspecified) | 27.6 µM (inactive) | 20 µM (inactive) | 22.9 µM (inactive) | 33.3 µM (inactive) | 23.2 µM (inactive) | 18.9 µM (inactive) | 16.3 µM (inactive) | 21.2 µM (inactive) | 15.8 µM (inactive) | 17.3 µM (inactive) | 15.8 | – | > 100 µM (inactive) | 18.7 µM (inactive) | 42.2 µM (inactive)
7 | C=CCc1cc(-c2cc(CC=C)c(O)c(CNCCCl)c2)cc(CNCCCl)c1O | 19.9 µM (inactive) | 17.8 µM (inactive) | 20.8 µM (inactive) | 14.6 µM (inactive) | 10.6 µM (inactive) | 16.5 µM (inactive) | 12.3 µM (inactive) | 16 µM (inactive) | 28.6 µM (inactive) | 17.4 µM (inactive) | 16.4 | – | 30 µM (inactive) | – | 18 µM (inactive)
8 | CN1C(=O)C(=CN)C(=O)N(C)C1=O | > 100 µM (inactive) | > 100 µM (inactive) | > 100 µM (inactive) | – | > 100 µM (inactive) | > 100 µM (inactive) | > 100 µM (inactive) | > 100 µM (inactive) | > 100 µM (inactive) | > 100 µM (inactive) | > 100 | – | > 100 µM (inactive) | – | –
9 | Cc1ccc2c(c1)CNc1ccc(C)cc1CN2 | > 100 µM (inactive) | > 100 µM (inactive) | > 100 µM (inactive) | > 100 µM (inactive) | > 100 µM (inactive) | > 100 µM (inactive) | 3.19 µM (inactive) | > 100 µM (inactive) | > 100 µM (inactive) | – | > 100 | > 100 µM (inactive) | < 0.01 µM (active) | > 100 µM (inactive) | > 100 µM (inactive)
10 | O=C1C(Cl)C(c2ccccc2)N1n1cnc2ccccc2c1=O (stereo unspecified) | > 100 µM (inactive) | > 100 µM (inactive) | > 100 µM (inactive) | > 100 µM (inactive) | – | > 100 µM (inactive) | 19.4 µM (inactive) | > 100 µM (inactive) | > 100 µM (inactive) | > 100 µM (inactive) | > 100 | 74.6 µM (inactive) | 60.4 µM (inactive) | – | > 100 µM (inactive)
11 | CCOC(=O)C1(C/C=C(/C)Cl)CCCC1=O (stereo unspecified) | > 100 µM (inactive) | > 100 µM (inactive) | – | > 100 µM (inactive) | – | > 100 µM (inactive) | > 100 µM (inactive) | > 100 µM (inactive) | > 100 µM (inactive) | > 100 µM (inactive) | 26.7 | > 100 µM (inactive) | > 100 µM (inactive) | > 100 µM (inactive) | > 100 µM (inactive)
12 | COC(=O)C1Cc2c([nH]c3ccccc23)C(C2CCCCC2)N1 (stereo unspecified) | > 100 µM (inactive) | > 100 µM (inactive) | > 100 µM (inactive) | > 100 µM (inactive) | > 100 µM (inactive) | > 100 µM (inactive) | > 100 µM (inactive) | > 100 µM (inactive) | > 100 µM (inactive) | > 100 µM (inactive) | > 100 | > 100 µM (inactive) | > 100 µM (inactive) | > 100 µM (inactive) | –
13 | C=CCN1COc2c(cc3c4c(cccc24)C(=O)O3)C1 | > 100 µM (inactive) | 15.5 µM (inactive) | 25.4 µM (inactive) | 19.2 µM (inactive) | 16.2 µM (inactive) | > 10 µM (inactive) | 23.8 µM (inactive) | 21.4 µM (inactive) | 20.5 µM (inactive) | 26.4 µM (inactive) | 29.2 | > 100 µM (inactive) | > 100 µM (inactive) | – | > 100 µM (inactive)
14 | CCOc1ccc(NC(=O)CC#N)cc1 | > 100 µM (inactive) | > 100 µM (inactive) | > 100 µM (inactive) | > 100 µM (inactive) | – | > 100 µM (inactive) | > 100 µM (inactive) | > 100 µM (inactive) | > 100 µM (inactive) | > 100 µM (inactive) | – | > 100 µM (inactive) | > 100 µM (inactive) | – | > 100 µM (inactive)
15 | COC1=CC(=O)[C@H]2[C@H](C)C(c3ccccc3)[C@@]2(C)C1=O (stereo partly specified) | > 100 µM (inactive) | > 100 µM (inactive) | > 100 µM (inactive) | > 100 µM (inactive) | > 100 µM (inactive) | > 100 µM (inactive) | > 100 µM (inactive) | > 100 µM (inactive) | > 100 µM (inactive) | – | > 100 | > 100 µM (inactive) | > 100 µM (inactive) | > 100 µM (inactive) | > 100 µM (inactive)

Reference: ChEMBL document CHEMBL1201862, “PubChem BioAssay data set” (2004)
